Consider one substance from patent US20070148448A1, “Microencapsulated delivery vehicles including cooling agents” (Kimberly-Clark Worldwide, Inc., priority 2005, published 2007).

The experiment has as its system Methicillin-resistant Staphylococcus aureus. The settings on record: 0.005% (by weight) active PHMB. The method, then: This Example utilized 1.5-milliliter tubes containing a 1-milliliter blend of phosphate-buffered saline (pH 7.2) and 5% (w/v) bovine serum albumin soil. The tubes were placed in electric heat blocks set for 22° C., 30° C., 40° C. and 50° C., respectively. The tubes remained in the electric heat blocks for approximately 10 minutes.
Duplicate tubes without PHMB at each temperature were also made.
All of the tubes were then placed back into the heat blocks at their respective temperatures. […] The letheen samples were then plated in duplicate on Tryptic Soy agar plates using a WASP2 spiral plater (commercially available from Don Whitley Scientific, Ltd., Yorkshire, United Kingdom).
After 48 hours, the plates were evaluated using a total plate count to determine the biocidal efficacy of each sample.

With polyhexamethylene biguanide [PHMB], the “difference in efficacy between 22° C. and 50° C.” value was “greater than 1.4 LOG,o”.
